The text below walks through data of US5840893A, “Compounds for treating infectious diseases” (priority 1996, dated 1998).

“Also recorded” adds a separate entry of the source.

The conditions of series [1]: Table IV; measured in a 25 gr mouse.
A further series has as its system HIV-1ADA. The series is described as follows: RT activity in supernatant of HIV-1ADA-infected monocytes. It counts as cell-based, HIV-1ADA in primary human monocytes. As to the method: The cultures were treated with none or between 10^-12 and 10^-6M Compound No. 2 and, simultaneously with the beginning of treatment, the cells were exposed to the monocyte-tropic strain HIV-1ADA about 0.01 TCID50 /cell (1 ng p24/10^6 cells) for 2 hours. Samples were withdrawn at days 3, 6, 10, 14 and 17 after infection and assayed for reverse transcription activity.
FIGS. 2B and 2C show the effects of various concentrations of Compound No. 2 on the production of HIV-1 in monocyte cultures not supplemented with M-CSF. In these studies MOI, as determined by concentration of p24 antigen was; FIG. 2B (8 ng/10^6 cells) and FIG. 2C (0.8 ng/10^6 cells).
Primary human monocytes were obtained from peripheral blood by Ficoll-Hypaque centrifugation and adherence to plastic as described previously. Gartner S. P., et al., 1986, Science 233:215. Briefly, after Ficoll-Hypaque (Pharmacia) separation, PBMCs were washed 4 times with DMEM (the last wash was done at 800 rpm to remove platelets) and resuspended in monocyte culture medium [DMEM supplemented with 1 mM glutamine, 10% heat-inactivated human serum, 1% penicillin+streptomycin mixture (Sigma)] at a density of 6×10^6 cells/ml. Cells were seeded in 24-well plates (1 ml per well) and incubated for 2 h at 37° C., 5% CO2. Following incubation, cells were washed 3 times with DMEM to remove non-adherent cells and incubation was continued in monocyte culture medium supplemented with 250 U/ml human M-CSF (Sigma). Cells were allowed to mature for 7 days prior to infection with the monocyte-tropic strain, HIV-1ADA. Nuovo, G. J., et al., 1992, Diagn. Mol. Pathol. 1:98. Two hours after infection, cells were washed with medium and cultured in RPMI supplemented with 10% human serum. […]
Macrophage-tropic strain HIV-1ADA was amplified in primary human monocytes and concentrated to produce stock with TCID50 of about 10^5 /ml. The concentration of HIV-1 was determined by immunoassay of viral p24, concentration; using a conversion factor of […].
For the reverse transcriptase (RT) assay, 10 μl of culture supernatant was added to 40 μl of reaction mixture (final composition was 50 mM Tris-HCl, pH 7.8; 20 mM KCl; 5 mM MgCl2; 1 mM DTT; 0.1% Triton X-100; 0.2 OD/ml polyA; 0.2 OD/ml oligo(dT)12-18; and 40 μCi/ml ^3 H-dTTP (76 Ci/mmol, DuPont) and incubated 2 hr at 37° C. 5 μl of the reaction mixture was then spotted onto the DE 81 (Whatman) paper. Paper was air dried and washed 5 times with 5% Na2 HPO4, followed by rinsing with distilled water. After air drying, paper was put on a Flexi Filter plate (Packard), covered with scintillation fluid and counted in a Top Count Microplate Counter (Packard). Results are expressed as counts per minute in 1 ml of supernatant (cpm/ml).

The next series has as its system HIV-1. In words: Inhibition of HIV-1 replication in cultured macrophages (Table I). In kind it is cell-based. As to conditions: Human immunodeficiency virus 1, Macrophage; 50% inhibition of viral growth, RT or p24, macrophages. As to the method:
A quantitative measurement of the activity of the compounds of the invention to block the replication of HIV-1 in non-dividing cells can be determined by culture of a macrophage-tropic strain of HIV-1 on peripheral blood-derived macrophages. The cells are cultured for 5-6 days prior to infection in a medium consisting of DMEM supplemented with 10% type A/B human serum and 200 U/ml Macrophage Colony Stimulating Factor, with half the medium changed after 3 days, to reach a density of about 10^6 cells per 5 ml well. A macrophage-tropic viral stock may be grown on these cells. The concentration of infectious particles in the stock is estimated by measurement of p24 antigen concentration.
To test the effect of compounds of the invention on HIV- 1 infection in the above-described culture system, the medium is removed and replaced with medium containing HIV-1 at a concentration of 1 ng of p24 (10^4 TCID50 /ml (TCID=tissue culture infectious doses)) and a known concentration of the compound of the invention (the inhibitor). After 24 hours, the cultures are washed to remove non-adherent virus and the culture is re-fed with medium containing the inhibitor at the desired concentration. The amount of replication of HIV-1 is estimated by an assay of the reverse transcriptase activity or by an assay of the concentration of p24 antigen in the culture medium every 2-3 days throughout the post-infection period. In a preferred embodiment the anti-HIV potency of the candidate drug is measured by comparison of the concentration of reverse transcriptase (RT) or of p24 antigen in the medium of the treated and control cultures at the time of the peak of these values in non-treated control cultures, that is about day 5 or 6 post-infection. Repetition at various levels of inhibitor allows for the calculation of the concentration of inhibitor that achieves 50% inhibition of viral growth, IC50. Table I discloses the IC50 of various inhibitors.

In the next series the test system is monocyte cultures. The series is described as follows: Cytotoxicity in monocyte cultures (LDH release, trypan blue exclusion). It counts as cell-based, human. As to conditions: up to 10 μM; LDH release and trypan blue exclusion.

What is called IC50 is the midpoint of a concentration-inhibition curve. As for `CC(=O)c1cc(Nc2cc(C)[n+](C)c(N)n2)cc(C(C)=O)c1.[I-]` [Compound No. 2, 2-amino-4-(3,5-diacetylphenyl)amino-1,6-dimethylpyrimidinium iodide], the Clearance in series [1] was determined as 35.35 mL/min. The IC50 was 0.1 to 1 nM in the series on HIV-1ADA (Homo sapiens, Monocyte, FIG. 2A, M-CSF, 1 ng p24/10^6 cells); around 10 nM with HIV-1ADA (Homo sapiens, Monocyte, FIG. 2B, without M-CSF, 8 ng p24/10^6 cells); below 1 nM with HIV-1ADA (Homo sapiens, Monocyte, FIG. 2C, without M-CSF, 0.8 ng p24/10^6 cells); 0.1 to 1 nM in the series on HIV-1ADA (Human immunodeficiency virus 1, Monocyte, FIG. 2, HIV-1 replication in monocytes, estimated); 1 nM with HIV-1. For the same compound, the cytotoxic effect result with monocyte cultures is recorded as “without toxic effects; also recorded: no cytotoxic effect was observed”.
